According to US8420624B2, “Methods for treating or preventing symptoms of hormonal variations” (Yung Shin Pharm. Ind. Co., Ltd., priority 2007, dated 2013):
Like-named read-outs stand apart in the source and are kept apart here.

Assays:
hot flashes [1] = conditions: cited from earlier work; for minimizing occurrence and severity of hot flashes versus placebo: randomized clinical trials
hot flashes [2] = conditions: pilot trials; cited from earlier work
hot flashes [3] = assay: Case report: risperidone for hot flashes of natural menopause; format: in vivo, human
Description: Patient 2 was a person who began developing intolerable hot flashes and night sweats after natural menopause that occurred seven years ago. […] One month after discontinuing hormone replacement therapy, they developed hot flashes up to ten times per day, night sweats up to three times per night that disrupted their sleep, and headaches. The patient then sought neurological consultation. The patient also suffered from headaches twice per day and fluctuating blood pressure. […] In addition, they slept well and their blood pressure stabilized. To assess the relationship between risperidone therapy and the resolution of hot flashes, risperidone was tapered off over 2 days. The patient experienced hot flashes and night sweats again two days after risperidone treatment was completely discontinued.

hot flashes [4] = assay: Case report: risperidone for hot flashes in a perimenopausal case; format: in vivo, human
Method: Patient 3 was a person who was diagnosed with perimenopause, based on increased levels of follicle-stimulating hormone, increased variability in menstrual cycle length, development of hot flashes, and insomnia. The patient had had these symptoms for two years. […] Risperidone treatment (1 mg per night) was started. At that time, the patient was experiencing seven hot flashes per day. […] With their permission, risperidone was tapered off over two days, and the hot flashes developed again three days later.

hot flashes [5] = assay: Case report: risperidone for hot flashes in a case with hysterectomy; format: in vivo, human; conditions: for response of hot flashes to earlier treatments: person, PREMARIN 0.625 mg/day, PROZAC 20 mg/day, TOFRANIL 20 mg/day, each for 1-2 months
Method: A person was admitted to the hospital in December of 2004 due to hot flashes, hypertension, and restlessness. They had been told that they were suffering from essential hypertension for 16 years and had taken anti-hypertension medications for several years. However, their blood pressure still fluctuated and frequently dropped below critical level after taking sublingual adalate (10 mg) for sudden onsets of high blood pressure. They had no history of psychiatric or systemic diseases, except for a total abdominal hysterectomy. On admission, it was observed that their hot flash attacks occurred many times a day, lasting a few minutes and was usually followed by high blood pressure up to 180-200/84-96 mmHg, general shivers, and anxiety for 20-60 minutes. Such clinical symptoms started and grew progressively worse.
[…] biochemical and hematological results, such as sodium and potassium levels, 140 mmol/L and 4.0 mmol/L, respectively, were all within normal ranges. […] The plasma adrenaline, nor-adrenaline, VMA, epinephrine, and dopamine levels as well as thyroid hormones, including T3, T4, and TSH, were also normal.
Because estrogen withdrawal may alter the thermoregulatory set-point located in the hypothalamus, by increasing the sensitivity of hypothalamic 5-HT2A receptor, a regimen of a 5-HT2A antagonist may provide an effective therapy for symptoms of hormonal variations, such as hot flashes. Thus, the patient was treated with risperidone (2 mg/day). […] Thereafter, the dosage of anti-hypertension drugs was reduced. With the patient's permission, risperidone therapy was discontinued and hot flashes reoccurred within 2-3 days after discontinuing the treatment. The symptoms were again alleviated 3-4 days after resuming risperidone treatment.

hot flashes [6] = assay: Case report: risperidone for residual hot flashes in a case with hormone replacement therapy; format: in vivo, human
Description: Patient 4 was a person who had developed hot flashes, with a frequency of once per hour, palpitation, insomnia, headache, restlessness, and unstable blood pressure for over seven years. Initially, the patient visited a psychiatrist for their sleep disorder and a cardiovascular specialist for their high blood pressure. A year later, because of intolerable hot flashes and other menopausal symptoms, they received hormone replacement therapy (DIVINA®). Although their hot flashes were reduced to twice per day, headaches persisted and their blood pressure fluctuated from 180 to 210/110 to 90 mm Hg despite treatment with anti-hypertension drugs. The patient was started on risperidone treatment, 1 mg at bedtime for the first two days, followed by 2 mg per night, for residual hot flashes.

D1 dopamine receptor = D1 dopamine receptor (Homo sapiens, UniProt P21728); conditions: cited from earlier work
D1 dopamine receptor, sequence (P21728 whole entry): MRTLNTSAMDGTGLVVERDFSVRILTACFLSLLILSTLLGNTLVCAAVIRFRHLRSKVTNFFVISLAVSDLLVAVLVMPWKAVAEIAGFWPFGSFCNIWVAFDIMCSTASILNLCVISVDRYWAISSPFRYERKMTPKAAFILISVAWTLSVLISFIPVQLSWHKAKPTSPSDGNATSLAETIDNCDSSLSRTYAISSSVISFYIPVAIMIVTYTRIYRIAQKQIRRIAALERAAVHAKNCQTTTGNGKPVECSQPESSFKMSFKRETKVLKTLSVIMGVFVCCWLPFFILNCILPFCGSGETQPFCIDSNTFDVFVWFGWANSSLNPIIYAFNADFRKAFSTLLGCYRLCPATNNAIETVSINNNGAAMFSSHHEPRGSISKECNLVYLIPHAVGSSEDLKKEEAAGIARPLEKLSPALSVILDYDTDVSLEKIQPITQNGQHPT

D2 receptors = D2 receptors (Homo sapiens, UniProt P14416); conditions: cited from earlier work
D2 receptors, sequence (P14416 whole entry): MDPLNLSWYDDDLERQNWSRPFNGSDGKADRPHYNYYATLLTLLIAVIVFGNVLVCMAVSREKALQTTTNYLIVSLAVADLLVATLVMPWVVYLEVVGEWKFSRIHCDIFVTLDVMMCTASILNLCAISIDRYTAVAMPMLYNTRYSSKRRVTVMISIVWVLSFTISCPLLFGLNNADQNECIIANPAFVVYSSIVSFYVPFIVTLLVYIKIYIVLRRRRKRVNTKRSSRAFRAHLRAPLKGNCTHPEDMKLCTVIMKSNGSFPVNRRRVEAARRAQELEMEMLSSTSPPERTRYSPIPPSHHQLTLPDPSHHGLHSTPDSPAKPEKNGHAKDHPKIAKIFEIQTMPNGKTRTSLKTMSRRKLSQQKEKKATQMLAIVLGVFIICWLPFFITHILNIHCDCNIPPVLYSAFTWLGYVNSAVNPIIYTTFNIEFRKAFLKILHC

hot flashes [7] = conditions: other pilot evaluations; compared with venlafaxine and paroxetine; cited from earlier work
α-adrenergic receptors = conditions: cited from earlier work
[8] = system: cholinergic muscarinic receptors; conditions: cited from earlier work
histamine receptors = conditions: cited from earlier work
serotonin receptors = conditions: cited from earlier work
dopamine receptors = conditions: cited from earlier work
D2 dopamine receptor = D2 dopamine receptor (Homo sapiens, UniProt P14416); conditions: serial PET scans; cited from earlier work
D2 dopamine receptor, sequence (P14416 whole entry): as above

hot flashes [9] = conditions: men and women; placebo 20 percent; cited from earlier work
hot flashes [10] = conditions: cited from earlier work

COc1ccc(C(CN(C)C)C2(O)CCCCC2)cc1 (stereo not drawn) [venlafaxine]
reduction in hot-flash scores (hot flashes [1]; low-dose (37.5 mg/day), placebo 27%): 37%
reduction in hot-flash scores (hot flashes [1]; moderate and high doses (75 and 150 mg/day)): 61%
minimizing occurrence and severity of hot flashes versus placebo (hot flashes [1]): more effective than placebo

NCC1(CC(=O)O)CCCCC1 [gabapentin]
reduction of the incidence of hot flashes (hot flashes [2]): 42%-70%

Cc1nc2n(c(=O)c1CCN1CCC(c3noc4cc(F)ccc34)CC1)CCCC2 [risperidone]
hot flashes after resuming treatment (hot flashes [3]; risperidone 2 mg daily resumed): has not suffered another hot flash since
blood pressure (hot flashes [3]; risperidone 2 mg per day): stabilized
sleep (hot flashes [3]; risperidone 2 mg per day): slept well
occurrence of hot flashes (hot flashes [3]; risperidone 2 mg per day, by day 7): completely eliminated
occurrence of hot flashes (hot flashes [3]; risperidone 2 mg per day, two days after start, before: up to ten times per day): reduced markedly
time to return of hot flashes and night sweats after treatment completely discontinued (hot flashes [3]; risperidone tapered off over 2 days): two
hot flashes at decreased dosage (hot flashes [4]; risperidone 0.25 mg or less per day, three months later): still markedly eliminated
hot flashes after resuming treatment (hot flashes [4]; risperidone 1 mg daily resumed): no longer experienced hot flashes
quality of sleep and life (hot flashes [4]; risperidone 1 mg daily resumed): improved
frequency and intensity of hot flashes (hot flashes [4]; risperidone 1 mg per night, three days after start, before: seven hot flashes per day): markedly reduced
time to return of hot flashes after tapering off (hot flashes [4]; risperidone tapered off over two days): three
associated symptoms (palpitation, anxiety) (hot flashes [5]; risperidone 2 mg/day): improved significantly
hot flash frequency (hot flashes [5]; risperidone 2 mg/day, after three days of treatment, before: many times a day): reduced markedly to a frequency of once per 1-2 weeks
time to reoccurrence of hot flashes after discontinuing treatment (hot flashes [5]; risperidone discontinued): 2 to 3 days
time to alleviation of symptoms after resuming treatment (hot flashes [5]; risperidone resumed): 3 to 4 days
residual hot flashes (hot flashes [6]; risperidone 1 mg at bedtime for two days, then 2 mg per night, three days after start): completely eliminated
blood pressure (hot flashes [6]; risperidone 1 mg then 2 mg per night): stabilized within the normal range

CN(C)CCOC1=Cc2ccccc2Sc2ccc(Cl)cc21 [zotepine]
affinity (D1 dopamine receptor): high affinity
affinity (D2 receptors): high affinity

CN1CCN2c3ncccc3Cc3ccccc3C2C1 (stereo not drawn) [mirtazapine]
alleviation of hot flashes (hot flashes [7]): alleviate hot flashes to a similar degree

O=C1CCc2ccc(OCCCCN3CCN(c4cccc(Cl)c4Cl)CC3)cc2N1 [aripiprazole]
affinity (α-adrenergic receptors): moderate affinities
affinity [8]: no appreciable affinity
affinity (histamine receptors): moderate affinities

O=C1Cc2cc(CCN3CCN(c4nsc5ccccc45)CC3)c(Cl)cc2N1 [ziprasidone]
affinity (serotonin receptors): high affinity
affinity (α-adrenergic receptors): high affinity
affinity (dopamine receptors): high affinity
affinity (histamine receptors): moderate affinity

CN(C)CCCN1c2ccccc2CCc2ccccc21.Cl [TOFRANIL®]
response of hot flashes to earlier treatments (hot flashes [5]): limited success

OCCOCCN1CCN(C2=Nc3ccccc3Sc3ccccc32)CC1 [quetiapine]
dissociation from the D2 receptor (D2 dopamine receptor): rapidly disassociates

CC(=O)O[C@]1(C(C)=O)CC[C@H]2[C@@H]3C=C(C)C4=CC(=O)CC[C@]4(C)[C@H]3CC[C@@]21C [megestrol acetate]
reduction in self-reported hot flash frequency (hot flashes [9]): ~80%

Clc1cccc(Cl)c1N=C1NCCN1 [clonidine]
adverse effects (hot flashes [10]; common adverse effects in clinical trials): dry mouth, dizziness, and blurred vision
difference from placebo effect, self-reported hot flash frequency (hot flashes [10]; men, double blind cross over study): not statistically significant
efficacy against hot flashes versus placebo (hot flashes [10]; randomized clinical trials): moderately more efficacious than placebo
decrease of hot flash frequency greater than that seen with placebo (hot flashes [10]; women): 10-15%

CNCCC(Oc1ccc(C(F)(F)F)cc1)c1ccccc1 (stereo not drawn) [Fluoxetine]
response of hot flashes to earlier treatments (hot flashes [5]): limited success
reduction in hot-flash scores (hot flashes [1]; 20 mg/day, placebo 36%, P=0.02): 50%

Fc1ccc([C@@H]2CCNC[C@H]2COc2ccc3c(c2)OCO3)cc1 [paroxetine]
minimizing occurrence and severity of hot flashes versus placebo (hot flashes [1]): more effective than placebo

estrogen
response to estrogen therapy (hot flashes [4]; perimenopausal person): responded well
